Values joined by “and” are separate entries in the source; they are usually repeats but may differ in a detail not shown here. Identical values can stand only once.
What was measured:
[1] = excess molar enthalpy (molar enthalpy of mixing); xn = mol fraction of the nth substance listed; conditions: 100 kPa, Liquid, Flow calorimetry
[2] = xn = mol fraction of the nth substance listed; conditions: 100 kPa, Liquid, Vibrating tube method

CC(=O)CC(C)C [4-methylpentan-2-one] + O
Conditions	excess molar enthalpy, [1]	mass density, [2]
288.15 K, x1 = 0.000573	-0.00173 kcal/mol	998.669 kg/m3
288.15 K, x1 = 0.000574	-0.00174 kcal/mol	998.655 kg/m3
288.15 K, x1 = 0.00086	–	998.405 kg/m3 and 998.422 kg/m3
288.15 K, x1 = 0.001146	-0.00341 kcal/mol	998.224 kg/m3
288.15 K, x1 = 0.001147	-0.00344 kcal/mol	998.21 kg/m3
288.15 K, x1 = 0.001432	-0.00429 kcal/mol	997.995 kg/m3
288.15 K, x1 = 0.001434	-0.00425 kcal/mol	998.001 kg/m3
288.15 K, x1 = 0.001718	-0.00512 kcal/mol	997.779 kg/m3
288.15 K, x1 = 0.00172	-0.00508 kcal/mol	997.788 kg/m3
288.15 K, x1 = 0.002004	-0.00591 kcal/mol	997.592 kg/m3
288.15 K, x1 = 0.002006	-0.00591 kcal/mol	997.567 kg/m3
298.15 K, x1 = 0.000574	-0.00135 kcal/mol and -0.00134 kcal/mol	996.572 kg/m3 and 996.58 kg/m3
298.15 K, x1 = 0.00086	-0.002 kcal/mol	996.345 kg/m3
298.15 K, x1 = 0.000861	-0.00203 kcal/mol	996.319 kg/m3
298.15 K, x1 = 0.001146	-0.00269 kcal/mol	996.114 kg/m3
298.15 K, x1 = 0.001148	-0.00271 kcal/mol	996.078 kg/m3
298.15 K, x1 = 0.001433	-0.0033 kcal/mol	995.875 kg/m3
298.15 K, x1 = 0.001435	-0.00335 kcal/mol	995.871 kg/m3
298.15 K, x1 = 0.001718	-0.00394 kcal/mol	995.624 kg/m3
298.15 K, x1 = 0.001721	-0.00397 kcal/mol	995.64 kg/m3
298.15 K, x1 = 0.002004	-0.00459 kcal/mol	995.417 kg/m3
298.15 K, x1 = 0.002007	-0.00455 kcal/mol	995.402 kg/m3
308.15 K, x1 = 0.000573	-0.000968 kcal/mol	993.534 kg/m3 and 993.533 kg/m3
308.15 K, x1 = 0.000859	-0.00147 kcal/mol	993.283 kg/m3 and 993.282 kg/m3
308.15 K, x1 = 0.001145	-0.00193 kcal/mol and -0.00192 kcal/mol	993.03 kg/m3 and 993.053 kg/m3
308.15 K, x1 = 0.001431	-0.00239 kcal/mol and -0.00238 kcal/mol	992.791 kg/m3 and 992.795 kg/m3
308.15 K, x1 = 0.001716	-0.00285 kcal/mol	992.542 kg/m3
308.15 K, x1 = 0.001717	-0.00288 kcal/mol	992.525 kg/m3
308.15 K, x1 = 0.002002	-0.0033 kcal/mol	992.3 kg/m3
308.15 K, x1 = 0.002003	-0.0033 kcal/mol	992.285 kg/m3
318.15 K, x1 = 0.000573	-0.000982 kcal/mol and -0.000633 kcal/mol	–
318.15 K, x1 = 0.000859	-0.00093 kcal/mol and -0.000918 kcal/mol	989.411 kg/m3 and 989.421 kg/m3
318.15 K, x1 = 0.001145	-0.00122 kcal/mol	989.156 kg/m3
318.15 K, x1 = 0.001146	-0.00122 kcal/mol	989.147 kg/m3
318.15 K, x1 = 0.001431	-0.00149 kcal/mol	988.905 kg/m3
318.15 K, x1 = 0.001432	-0.00148 kcal/mol	988.91 kg/m3
318.15 K, x1 = 0.001717	-0.00179 kcal/mol	988.633 kg/m3
318.15 K, x1 = 0.001718	-0.00178 kcal/mol	988.636 kg/m3
318.15 K, x1 = 0.002003	-0.00204 kcal/mol	988.402 kg/m3
318.15 K, x1 = 0.002004	-0.00202 kcal/mol	988.379 kg/m3

CCC(=O)CC [pentan-3-one] + O
Conditions	excess molar enthalpy, [1] [kcal/mol]	mass density, [2] [kg/m3]
288.15 K, x1 = 0.000848	-0.00261	998.595
288.15 K, x1 = 0.000849	-0.00264	998.589
288.15 K, x1 = 0.001695	-0.00514	998.107
288.15 K, x1 = 0.001696	-0.0052	998.104
288.15 K, x1 = 0.00254	-0.00771	997.609
288.15 K, x1 = 0.002542	-0.00769	997.616
288.15 K, x1 = 0.003385	-0.0102	997.144
288.15 K, x1 = 0.003386	-0.0102	997.139
288.15 K, x1 = 0.004227	-0.0127	996.667
288.15 K, x1 = 0.004229	-0.0126	996.682
288.15 K, x1 = 0.005069	-0.015	996.228
288.15 K, x1 = 0.005071	-0.015	996.221
298.15 K, x1 = 0.000847	-0.00214	996.504
298.15 K, x1 = 0.001693	-0.00429	995.96
298.15 K, x1 = 0.001694	-0.00426	995.958
298.15 K, x1 = 0.002537	-0.00626	995.458
298.15 K, x1 = 0.002539	-0.0063	995.442
298.15 K, x1 = 0.00338	-0.00823	994.944
298.15 K, x1 = 0.003383	-0.0083	994.931
298.15 K, x1 = 0.004222	-0.0103	994.42
298.15 K, x1 = 0.004225	-0.0103	994.423
298.15 K, x1 = 0.005064	-0.0123	993.924
298.15 K, x1 = 0.005066	-0.0123	993.902
308.15 K, x1 = 0.000848	-0.00167	993.46
308.15 K, x1 = 0.000849	-0.00169	993.449
308.15 K, x1 = 0.001695	-0.00332	992.887
308.15 K, x1 = 0.001696	-0.00332	992.873
308.15 K, x1 = 0.00254	-0.00493	992.322
308.15 K, x1 = 0.002543	-0.00497	992.311
308.15 K, x1 = 0.003384	-0.00646	991.77
308.15 K, x1 = 0.003387	-0.00641	991.774
308.15 K, x1 = 0.004226	-0.00797	991.241
308.15 K, x1 = 0.004231	-0.00798	991.216
308.15 K, x1 = 0.005069	-0.00955	990.666
308.15 K, x1 = 0.005074	-0.00957	990.66
318.15 K, x1 = 0.000849	-0.00121	989.61
318.15 K, x1 = 0.00085	-0.00122	989.603
318.15 K, x1 = 0.001697	-0.00241	989.005
318.15 K, x1 = 0.001698	-0.00241	988.992
318.15 K, x1 = 0.002543	-0.00355	988.399
318.15 K, x1 = 0.002544	-0.00357	988.396
318.15 K, x1 = 0.003388	-0.00462	987.821
318.15 K, x1 = 0.00339	-0.00467	987.82
318.15 K, x1 = 0.004231	-0.00576	987.229
318.15 K, x1 = 0.004233	-0.00573	987.234
318.15 K, x1 = 0.005073	-0.00678	986.636
318.15 K, x1 = 0.005076	-0.00682	986.636

Reference: the NIST ThermoML archive (doi:10.1021/acs.jced.7b00035)
